“Also recorded” adds a separate entry of the source.
Columns and labels:
[1] = Eight-day toxicity studies in mice, lethality (i.p.); type: in vivo; conditions: for Total number of deaths: 8 days
Text: Eight-day toxicity studies of IFT 1026 and Bromhexine in mice.

[2] = Long-term toxicity in rats (16 weeks): mean body weight; type: in vivo
Text: Effect of daily oral administration of various doses of
IFT 1026 and Bromhexine on mean body weight of rats.

[3] = Long-term toxicity in rats: hematological parameters; type: in vivo, rat; conditions: daily oral Bromhexine 250 mg/kg, IFT 1026 350 mg/kg
Method: The hematological and biochemical values relating to the groups under treament with the above reported doses are shown in Tables Nos. 4 and 5. These values are virtually the same for both treated and control animals.
Effect of daily oral administration of Bromhexine 250 mg/kg
and IFT 1026 350 mg/kg on the hematological parameters in […]

[4] = Long-term toxicity in rats: biochemical parameters; type: in vivo, rat; conditions: daily oral 250 mg/kg Bromhexine, 350 mg/kg IFT 1026
[5] = Bromsulphtalein (BSP) clearance in rats treated with the lower dose; type: in vivo; conditions: 30 min after 50 mg/kg BSP i.v., lower dose of drug
Method: The possibility to use BSP for the diagnosis of lesions in liver parenchyma is well known. Bromsulphtalein (BSP) clearance was made according to Carpi and Parenti (Carpi, C. and M. A. Parenti, Il Farmaco, Ed. Pr. vol. 17, page 45, 1962). Thirty minutes after the i.v. administration of 50 mg/kg BSP to control rats, the mean plasma level of the dyestuff is 80±12 mcg/ml.
% of rate showing BSP plasma levels greater than 80 mcg/ml
(control values) and 160 mcg/ml (two-fold control values)

[6] = Long-term toxicity in rats: organ weights at necropsy; type: in vivo; conditions: fresh weight, daily oral 250 mg/kg Bromhexine, 350 mg/kg IFT 1026
Method: Effect of daily oral administration of 250 mg/kg Bromhexine and 350 mg/kg
organ weights of rats, expressed as grams of fresh weight.

[7] = Long-term toxicity in rats: mortality, pathology and general state
Method: Long-term toxicity (16 weeks) of IFT 1026 is tested in comparison to the parent compound (Bromhexine).

[8] = tested on: Pain induced by a chemical stimulus; assay: Siegmund Test: pain induced by a chemical stimulus (acetic acid writhing); type: in vivo, mice; conditions: mouse, 300 mg/kg oral
Method: (§1) Two test methods are used for establishing the action of Bromhexine and IFT 1026 on noci-ceptive stimuli in mice.
(§2) (a) Pain induced by a chemical stimulus according to the method of Siegmund (Siegmund E., Cadmier, R., and Lu, G. Proc. Soc. exp. Biol. N.Y. 95, 729--1957). The mice distributed at random into groups of 10 animals, are deprived of solid food for the 18-hour period prior to the test. […] Thirty minutes after treatment the mice are injected i.p. with 0.1 ml/10 g of a 1.5% acetic acid solution. The writhing is recorded for a 20 min. period following this i.p. injection.

[9] = tested on: Pain induced by a physical stimulation; assay: Hot-plate Test (Eddy and Leimbach): pain induced by a physical stimulation; type: in vivo, mice; conditions: mouse, 300 mg/kg oral, plate at 57° C.
Method: as §1
(§3) (b) Pain induced by a physical stimulation according to the hot-plate test technique by Eddy and Leimbach (Eddy, N. B. and Leimbach, O., J. Pharmacol. exp.Ther. 107, 383--1953). The temperature of the plate was kept at 57° C. Groups of 12 mice are treated as described under (a) above. The reaction times are measured 15 min. before treatment (Ro) and 4 times after the administration (every 15 min). Only the maximal response is taken into account (Rmax).

[10] = tested on: Cough elicited by 15% citric acid spray; assay: Antitussive activity in mice, citric acid spray cough; type: in vivo; conditions: Mus musculus, oral, 1 hour after administration, confidence limits P = 0.05
Method: (§4) (6) Antitussive effect in Guinea-pigs and mice
(§5) Cough is elicited by 15% citric acid spray in both species, according to the method by Harsany et al. (Boll. Chim. Farm. 112, 691, 1973). The effect was tested 1 hour after oral administration and 30 min. after intraperitoneal application of the antitussive agents on mice and Guinea-pigs respectively.
(§6) ED50 values of the drugs are computed by the method of Litchfield and Wilcoxon (Litchfield, J. T. Jr., and Wilcoxon F., J. Pharmacol. exp. Ther. 96,99--1949).

[11] = tested on: Cough elicited by 15% citric acid spray; assay: Antitussive activity in Guinea-pigs, citric acid spray cough; type: in vivo; conditions: Cavia porcellus, ip, 0.5 h, intraperitoneal, 30 min. after application, confidence limits P = 0.05
Method: as §4, §5, §6

noci-ceptive stimuli = assay: Study of analgesic action on mice (both tests); type: in vivo; conditions: 300 mg/kg oral
Method: as §1, §2, §3

Compound: COc1ccccc1OCC(=O)Nc1c(Br)cc(Br)cc1CN(C)C1CCCCC1 [IFT 1026, N-(2-guaiacol-glycolyl-amino-3,5-dibromobenzyl)N-cyclohexylmethylamine]
- Number of deaths at day 3 ([1]; daily dose 450 mg/k): 1
- Total number of deaths ([1]; daily dose 450 mg/k): 1/10
- Number of deaths at day 2 ([1]; daily dose 900 mg/k): 1
- Total number of deaths ([1]; daily dose 900 mg/k): 1/10
- body weight, mean ± SE ([2]; females, 70 mg/kg daily oral, 0 days): 125 ± 6 g
- body weight, mean ± SE ([2]; females, 70 mg/kg daily oral, 21 days): 181 ± 5 g
- body weight, mean ± SE ([2]; females, 70 mg/kg daily oral, 45 days): 218 ± 2 g
- body weight, mean ± SE ([2]; females, 70 mg/kg daily oral, 60 days): 242 ± 2 g
- body weight, mean ± SE ([2]; females, 350 mg/kg daily oral, 0 days): 118 ± 2 g
- body weight, mean ± SE ([2]; females, 350 mg/kg daily oral, 21 days): 179 ± 5 g
- body weight, mean ± SE ([2]; females, 350 mg/kg daily oral, 45 days): 225 ± 7 g
- body weight, mean ± SE ([2]; females, 350 mg/kg daily oral, 60 days): 232 ± 10 g
- body weight, mean ± SE ([2]; females, 1400 mg/kg daily oral, 0 days): 122 ± 5 g
- body weight, mean ± SE ([2]; females, 1400 mg/kg daily oral, 21 days): 173 ± 7 g
- body weight, mean ± SE ([2]; females, 1400 mg/kg daily oral, 45 days): 211 ± 5 g
- body weight, mean ± SE ([2]; females, 1400 mg/kg daily oral, 60 days): 221 ± 8 g
- body weight, mean ± SE ([2]; males, 70 mg/kg daily oral, 0 days): 117 ± 7 g
- body weight, mean ± SE ([2]; males, 70 mg/kg daily oral, 21 days): 220 ± 4 g
- body weight, mean ± SE ([2]; males, 70 mg/kg daily oral, 45 days): 310 ± 4 g
- body weight, mean ± SE ([2]; males, 70 mg/kg daily oral, 60 days): 370 ± 6 g
- body weight, mean ± SE ([2]; males, 350 mg/kg daily oral, 0 days): 123 ± 8 g
- body weight, mean ± SE ([2]; males, 350 mg/kg daily oral, 21 days): 226 ± 6 g
- body weight, mean ± SE ([2]; males, 350 mg/kg daily oral, 45 days): 290 ± 7 g
- body weight, mean ± SE ([2]; males, 350 mg/kg daily oral, 60 days): 368 ± 4 g
- body weight, mean ± SE ([2]; males, 1400 mg/kg daily oral, 0 days): 121 ± 5 g
- body weight, mean ± SE ([2]; males, 1400 mg/kg daily oral, 21 days): 222 ± 7 g
- body weight, mean ± SE ([2]; males, 1400 mg/kg daily oral, 45 days): 295 ± 8 g
- body weight, mean ± SE ([2]; males, 1400 mg/kg daily oral, 60 days): 365 ± 9 g
- variations in the body weights versus control group ([2]; rats, exception: Bromhexine 1000 mg/kg/day): no significant variations
- RBC, mean ± SE ([3]; females): 817 ± 58 10^6 /ml
- WBC, mean ± SE ([3]; females): 179 ± 26 10^2 /ml
- RBC, mean ± SE ([3]; males): 657 ± 60 10^6 /ml
- WBC, mean ± SE ([3]; males): 140 ± 10 10^2 /ml
- A/G ratio (Albumin/Globulin), mean ± SE ([4]; females): 2.6 ± 0.3
- BUN, mean ± SE ([4]; females): 41.1 ± 2 mg %
- GLUCOSE, mean ± SE ([4]; females): 85.9 ± 8 mg %
- SGOT, mean ± SE ([4]; females): 25.1 ± 0.3 Units/ml
- SGPT, mean ± SE ([4]; females): 13.2 ± 0.4 Units/ml
- TOTAL PROTEIN, mean ± SE ([4]; females): 30.6 ± 2.4 mg/mL
- A/G ratio (Albumin/Globulin), mean ± SE ([4]; males): 2.2 ± 0.1
- BUN, mean ± SE ([4]; males): 39.9 ± 5 mg %
- GLUCOSE, mean ± SE ([4]; males): 73.7 ± 5 mg %
- SGOT, mean ± SE ([4]; males): 24.5 ± 0.6 Units/ml
- SGPT, mean ± SE ([4]; males): 13.1 ± 0.7 Units/ml
- TOTAL PROTEIN, mean ± SE ([4]; males): 28.2 ± 2.1 mg/mL
- % showing BSP plasma levels >160 mcg/ml ([5]; X^2 = 0.43, N.S.): 5.5%
- rats showing BSP plasma levels >160 mcg/ml, number/tested ([5]; X^2 = 0.43, N.S.): 1/18
- % showing BSP plasma levels >80 mcg/ml ([5]; X^2 = 0.7, N.S.): 28%
- rats showing BSP plasma levels >80 mcg/ml, number/tested ([5]; X^2 = 0.7, N.S.): 5/18
- organ weight, Adrenal glands ([6]; females): 4.6 ± 0.1 10^-2 grams
- organ weight, Brain ([6]; females): 19.4 ± 1 10^-1 grams
- organ weight, Heart ([6]; females): 7.3 ± 0.8 10^-1 grams
- organ weight, Kidneys ([6]; females): 18.2 ± 0.4 10^-1 grams
- organ weight, Liver ([6]; females): 10.1 ± 0.3 grams
- organ weight, Lungs ([6]; females): 14.2 ± 1.1 10^-1 grams
- organ weight, Spleen ([6]; females): 6.5 ± 0.2 10^-1 grams
- organ weight, Adrenal glands ([6]; males): 3.7 ± 0.5 10^-2 grams
- organ weight, Brain ([6]; males): 13.4 ± 0.4 10^-1 grams
- organ weight, Heart ([6]; males): 7.1 ± 0.4 10^-1 grams
- organ weight, Kidneys ([6]; males): 18.3 ± 0.4 10^-1 grams
- organ weight, Liver ([6]; males): 9.7 ± 0.9 grams
- organ weight, Lungs ([6]; males): 9.1 ± 0.8 10^-1 grams
- organ weight, Spleen ([6]; males): 6.3 ± 0.3 10^-1 grams
- animals that died during the study ([7]; rat, in vivo): 2 animals
- changes in general state of health, behaviour, body weight, blood and viscera ([7]; rat, in vivo): no significant changes
- long-term toxicity in the rats ([7]; rat, in vivo): weak
- toxicity compared with Bromhexine (parent compound) ([7]; rats, subacute and long-term administration): less toxic than Bromhexine; also recorded: less toxic than the parent compound
- Siegmund Test, number of writhings for a 20 min. period, mean ± SE [8]: 34 ± 3
- Hot-plate Test (R max/Ro), mean ± SE [9]: 1.62 ± 0.26
- ED50 [10]: 298 mg/kg
- ED50 [11]: 189 mg/kg
- Responses to algogenic stimuli (noci-ceptive stimuli): not suppressed

From patent US4191780A, “Bromhexine derivatives and process for making same” (priority 1978, dated 1980)
